This passage reports pH dependent solubility results from US20080139624A1, “Oral Dosage Form Comprising Rosiglitazone” (priority 2005, published 2008).

The data set is described as follows: pH dependent solubility. The data set is classed as physicochemical. To be noted: acidic conditions of the stomach (around pH 2) vs near neutral conditions of the lower intestine (around pH 7).

With `CN(CCOc1ccc(CC2SC(=O)NC2=O)cc1)c1ccccn1` (stereo not shown) [Compound A, 5-[4-[2-(N-methyl-N-(2 pyridyl)amino)ethoxy]benzyl]thiazolidine-2,4-dione], the pH dependent solubility entry is reported as “marked pH dependent solubility”.
